Assay results published in patent US10407409B2, “6-(5-hydroxy-1H-pyrazol-1-yl)nicotinamide inhibitors of PHD” (Takeda Pharmaceutical Company Limited, priority 2013, dated 2019).

Experiments:
[1] = test system: HIF1a protein in H9c2 rat cardiomyocytes; test: Cell-based HIF-alpha stabilization assay (inhibition of PHD in cells); settings: 24 hrs compound incubation, HIF1a protein by ELISA; for EC50: Rattus norvegicus, H9c2, 24 h, read-out: Inhibition of PHD in cells (pEC50) (converted)
In short: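 Rat H9c2 cardiomyocytes, cultured 24 h, were treated 24 h with an 11-point serial dilution of compound. HIF1a in whole-cell lysates was quantified by ELISA as % of the maximal desferrioxamine response. EC50 came from curve fitting; EC50pos is the concentration reaching 50% of the desferrioxamine maximum.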

[2] = biological target: PHD2 enzyme (residues 181-417) (Homo sapiens (Human), UniProt Q9GZT9); test: Inhibition of PHD enzyme (LC/MS peptide hydroxylation assay); assay type: biochemical; settings: PHD2 (residues 181-417) 5 nM, 60 min pre-incubation; -log(IC50), IC50 molar
Sequence of PHD2 enzyme (residues 181-417) (Q9GZT9 181-417): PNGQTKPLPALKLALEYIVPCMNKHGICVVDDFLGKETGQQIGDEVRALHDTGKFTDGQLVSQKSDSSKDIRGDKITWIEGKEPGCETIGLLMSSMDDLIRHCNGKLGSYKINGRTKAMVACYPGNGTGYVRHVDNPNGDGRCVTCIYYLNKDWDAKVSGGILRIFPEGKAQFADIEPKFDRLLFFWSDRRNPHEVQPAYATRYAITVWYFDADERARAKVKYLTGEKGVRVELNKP
In short: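 PHD2 (5 nM final) preincubated with inhibitor 60 min at RT in 50 mM HEPES, 50 mM KCl, 0.5 mM TCEP, 2 uM FeCl2, 0.1 mg/ml BSA, pH 7.3. Reaction started with biotin-peptide (1 uM), 2-oxoglutarate (2 uM), ascorbate (1 mM), quenched at 60 min; hydroxylated product by LC/MS, reported as pIC50.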

Row | SMILES | PHD Inhibition (pIC50) [2] | EC50 [1] | Inhibition of PHD in cells (pEC50) [1]
1 | COc1cc(-c2cnn(-c3ccc(C(=O)NC(C)(C)CN(C)C)cn3)c2O)ccn1 [Example 51, N-(1-(dimethylamino)-2-methylpropan-2-yl)-6-(5-hydroxy-4-(2-methoxypyridin-4-yl)-1H-pyrazol-1-yl)nicotinamide] | 7.3 | 1820 nM | 
2 | Cc1cc(C#N)ccc1-c1cnn(-c2ccc(C(=O)N[C@H]3CC[C@H](O)CC3)cn2)c1O [Example 132, 6-(4-(4-cyano-2-methylphenyl)-5-hydroxy-1H-pyrazol-1-yl)-N-((1r,4r)-4-hydroxycyclohexyl)nicotinamide] | 7.26 |  | 6.59
3 | Cc1cc(C#N)ccc1-c1cnn(-c2ccc(C(=O)N[C@H](C)C3CCOCC3)cn2)c1O [Example 63, (R)-6-(4-(4-cyano-2-methylphenyl)-5-hydroxy-1H-pyrazol-1-yl)-N-(1-(tetrahydro-2H-pyran-4-yl)ethyl)nicotinamide] | 7.25 | 158 nM | 
4 | N#Cc1ccc(-c2cnn(-c3ccc(C(=O)NC4CCNCC4)cn3)c2O)cc1 [Example 72] | 7.8 | 2880 nM | 
5 | COc1cc(-c2cnn(-c3ccc(C(=O)N[C@H]4CC[C@@H](OC)CC4)cn3)c2O)ccn1 [Example 9, 6-(5-hydroxy-4-(2-methoxypyridin-4-yl)-1H-pyrazol-1-yl)-N-((1s,4s)-4-methoxycyclohexyl)nicotinamide] | 7.5 | 525 nM | 
6 | COCC1(NC(=O)c2ccc(-n3ncc(-c4ccnc(OC)c4)c3O)nc2)CCCC1 [Example 3, 6-(5-hydroxy-4-(2-methoxypyridin-4-yl)-1H-pyrazol-1-yl)-N-(1-(methoxymethyl)cyclopentyl)nicotinamide] | 7.3 | 724 nM | 
7 | COc1cc(-c2cnn(-c3ccc(C(=O)NC4(C)CC4)cn3)c2O)ccn1 [Example 4, 6-(5-hydroxy-4-(2-methoxypyridin-4-yl)-1H-pyrazol-1-yl)-N-(1-methylcyclopropyl)nicotinamide] | 6.92 | 525 nM | 
8 | Cc1cc(C#N)ccc1-c1cnn(-c2ccc(C(=O)NC3CCC3)cn2)c1O [Example 134, 6-(4-(4-cyano-2-methylphenyl)-5-hydroxy-1H-pyrazol-1-yl)-N-cyclobutylnicotinamide] | 7.21 | 339 nM | 
9 | Cc1cc(C#N)ccc1-c1cnn(-c2ccc(C(=O)NC3CC3)cn2)c1O [Example 127, 6-(4-(4-cyano-2-methylphenyl)-5-hydroxy-1H-pyrazol-1-yl)-N-cyclopropylnicotinamide] | 7.18 | 93.3 nM | 
10 | COc1cc(-c2cnn(-c3ccc(C(=O)N[C@H]4CC[C@@H](C)CC4)cn3)c2O)ccn1 [Example 52, 6-(5-hydroxy-4-(2-methoxypyridin-4-yl)-1H-pyrazol-1-yl)-N-((1s,4s)-4-methylcyclohexyl)nicotinamide] | 8.3 | 933 nM | 
11 | COCC1(CNC(=O)c2ccc(-n3ncc(-c4ccc(C#N)cc4)c3O)nc2)CC1 [Example 56, 6-(4-(4-cyanophenyl)-5-hydroxy-1H-pyrazol-1-yl)-N-((1-(methoxymethyl)cyclopropyl)methyl)nicotinamide] | 7.12 | 1450 nM | 
12 | CNCCCNC(=O)c1ccc(-n2ncc(-c3ccnc(OC)c3)c2O)nc1 [Example 42, 6-(5-hydroxy-4-(2-methoxypyridin-4-yl)-1H-pyrazol-1-yl)-N-(3-(methylamino)propyl)nicotinamide] | 7.5 | 3390 nM | 

Second part, led by results:

Row | PHD Inhibition (pIC50) [2] | SMILES | EC50 [1] | Inhibition of PHD in cells (pEC50) [1]
13 | 8.39 | Cc1cc(C#N)ccc1-c1cnn(-c2ccc(C(=O)N3CC(N(C)C4CCC4)C3)cn2)c1O [Example 297, 4-(1-(5-(3-(cyclobutyl(methyl)amino)azetidine-1-carbonyl)pyridin-2-yl)-5-hydroxy-1H-pyrazol-4-yl)-3-methylbenzonitrile] | 525 nM | 
14 | 8.41 | Cc1cc(C#N)ccc1-c1cnn(-c2ccc(C(=O)NC3CCN(CC(F)(F)F)CC3)cn2)c1O [Example 302, 6-(4-(4-cyano-2-methylphenyl)-5-hydroxy-1H-pyrazol-1-yl)-N-(1-(2,2,2-trifluoroethyl)piperidin-4-yl)nicotinamide] | 288 nM | 
15 | 8.26 | Cc1c(-c2cnn(-c3ccc(C(=O)N4CCN(C)CC4)cn3)c2O)ccc(C#N)c1F [Example 322, 2-fluoro-4-(5-hydroxy-1-(5-(4-methylpiperazine-1-carbonyl)pyridin-2-yl)-1H-pyrazol-4-yl)-3-methylbenzonitrile] | 933 nM | 
16 | 7.1 | COCCCNC(=O)c1ccc(-n2ncc(-c3ccc(=O)n(C)c3)c2O)nc1 [Example 216, 6-(5-hydroxy-4-(1-methyl-6-oxo-1,6-dihydropyridin-3-yl)-1H-pyrazol-1-yl)-N-(3-methoxypropyl)nicotinamide] | 5250 nM | 
17 | 7.36 | Cc1cc(C#N)ccc1-c1cnn(-c2ccc(C(=O)N[C@H]3CC[C@H](O)CC3)cn2)c1O [Example 139, 6-(4-(4-cyano-2-methylphenyl)-5-hydroxy-1H-pyrazol-1-yl)-N-((1r,4r)-4-hydroxycyclohexyl)nicotinamide] |  | 7.09
18 | 8.02 | Cc1cc(C#N)ccc1-c1cnn(-c2ccc(C(=O)N(C)C3CN(C)C3)cn2)c1O [Example 432, 6-(4-(4-cyano-2-methylphenyl)-5-hydroxy-1H-pyrazol-1-yl)-N-methyl-N-(1-methylazetidin-3-yl)nicotinamide] | 741 nM | 
19 | 8.33 | COCCCN(C)C(=O)c1ccc(-n2ncc(-c3ccc(C#N)c(F)c3C)c2O)nc1 [Example 326, 6-(4-(4-cyano-3-fluoro-2-methylphenyl)-5-hydroxy-1H-pyrazol-1-yl)-N-(3-methoxypropyl)-N-methylnicotinamide] | 490 nM | 
20 | 7.8 | Cc1cc(C#N)ccc1-c1cnn(-c2ccc(C(=O)NC(C)(C)CN(C)C)cn2)c1O [Example 187, 6-(4-(4-cyano-2-methylphenyl)-5-hydroxy-1H-pyrazol-1-yl)-N-(1-(dimethylamino)-2-methylpropan-2-yl)nicotinamide] | 355 nM | 
21 | 8.27 | CCN1CCN(C(=O)c2ccc(-n3ncc(-c4ccc(C#N)c(F)c4C)c3O)nc2)CC1 [Example 305, 4-(1-(5-(4-ethylpiperazine-1-carbonyl)pyridin-2-yl)-5-hydroxy-1H-pyrazol-4-yl)-2-fluoro-3-methylbenzonitrile] | 1320 nM | 
22 | 7.59 | Cc1cc(C#N)ccc1-c1cnn(-c2ccc(C(=O)N(C)CCCN(C)C)cn2)c1O [Example 313, 6-(4-(4-cyano-2-methylphenyl)-5-hydroxy-1H-pyrazol-1-yl)-N-(3-(dimethylamino)propyl)-N-methylnicotinamide] | 1120 nM | 
23 | 7.22 | C[C@H]1C[C@@H]1NC(=O)c1ccc(-n2ncc(-c3ccc(C#N)cc3)c2O)nc1 [Example 169, 6-(4-(4-cyanophenyl)-5-hydroxy-1H-pyrazol-1-yl)-N-((1s,2s)-2-methylcyclopropyl)nicotinamide] | 891 nM | 
24 | 8.2 | Cc1cc(C#N)ccc1-c1cnn(-c2ccc(C(=O)NCC3CCC3)cn2)c1O [Example 180, 6-(4-(4-cyano-2-methylphenyl)-5-hydroxy-1H-pyrazol-1-yl)-N-(cyclobutylmethyl)nicotinamide] | 398 nM | 
25 | 7.9 | COCC1(CNC(=O)c2ccc(-n3ncc(-c4ccc(C#N)cc4)c3O)nc2)CCCC1 [Example 147, 6-(4-(4-cyanophenyl)-5-hydroxy-1H-pyrazol-1-yl)-N-((1-(methoxymethyl)cyclopentyl)methyl)nicotinamide] | 3240 nM | 
26 | 7.21 | Cc1cc(C#N)ccc1-c1cnn(-c2ccc(C(=O)N[C@@H]3CCOC3)cn2)c1O [Example 137, (R)-6-(4-(4-cyano-2-methylphenyl)-5-hydroxy-1H-pyrazol-1-yl)-N-(tetrahydrofuran-3-yl)nicotinamide] | 245 nM | 
27 | 8.48 | COCCCCNC(=O)c1ccc(-n2ncc(-c3ccc(C#N)cc3F)c2O)nc1 [Example 285, 6-(4-(4-cyano-2-fluorophenyl)-5-hydroxy-1H-pyrazol-1-yl)-N-(4-methoxybutyl)nicotinamide] | 933 nM | 
28 | 7.48 | CO[C@H]1CC[C@H](NC(=O)c2ccc(-n3ncc(-c4ccc(C#N)cc4)c3O)nc2)CC1 [Example 228, 6-(4-(4-cyanophenyl)-5-hydroxy-1H-pyrazol-1-yl)-N-((1r,4r)-4-methoxycyclohexyl)nicotinamide] |  | 6.59
29 | 8.3 | COc1cc(-c2cnn(-c3ccc(C(=O)NCC4CCOCC4)cn3)c2O)ccc1C#N [Example 253, 6-(4-(4-cyano-3-methoxyphenyl)-5-hydroxy-1H-pyrazol-1-yl)-N-((tetrahydro-2H-pyran-4-yl)methyl)nicotinamide] | 5620 nM | 
30 | 8.1 | COC1CN(C(=O)c2ccc(-n3ncc(-c4ccc(C#N)cc4C)c3O)nc2)C1 [Example 184, 4-(5-hydroxy-1-(5-(3-methoxyazetidine-1-carbonyl)pyridin-2-yl)-1H-pyrazol-4-yl)-3-methylbenzonitrile] | 214 nM | 
